# Paper PMC3185947 (British Journal of Cancer, 2011)
# Marks after values point to notes of the source that are not given here.
# Tested on: patients with previously treated advanced NSCLC
# Test: Erlotinib-related toxicities (worst grade per patient), NCI CTC Version 2.0
# Format: in vivo, human
smiles,measurement,setting,value
C#Cc1cccc(Nc2ncnc3cc(OCCOC)c(OCCOC)cc23)c1 [erlotinib],"Alopecia, grade 3–4",Total (N=42),0 (0) n (%)
same,"Alopecia, grade Any",Total (N=42),6 (14) n (%)
same,"Anorexia, grade 3–4",Total (N=42),1 (2) n (%)
same,"Anorexia, grade Any",Total (N=42),11 (26) n (%)
same,"Creatinine, grade 3–4",Total (N=42),1 (2) n (%)
same,"Creatinine, grade Any",Total (N=42),1 (2) n (%)
same,"Diarrhea, grade 3–4",Total (N=42),1 (2) n (%)
same,"Diarrhea, grade Any",Total (N=42),33 (79) n (%)
same,"Epistaxis, grade 3–4",Total (N=42),0 (0) n (%)
same,"Epistaxis, grade Any",Total (N=42),5 (12) n (%)
same,"Fatigue, grade 3–4",Total (N=42),3 (7) n (%)
same,"Fatigue, grade Any",Total (N=42),17 (40) n (%)
same,"Headache, grade 3–4",Total (N=42),1 (2) n (%)
same,"Headache, grade Any",Total (N=42),1 (2) n (%)
same,"Nausea, grade 3–4",Total (N=42),0 (0) n (%)
same,"Nausea, grade Any",Total (N=42),22 (52) n (%)
same,"Paronychia, grade 3–4",Total (N=42),1 (2) n (%)
same,"Paronychia, grade Any",Total (N=42),5 (12) n (%)
same,"Skin fissures, grade 3–4",Total (N=42),1 (2) n (%)
same,"Skin fissures, grade Any",Total (N=42),5 (12) n (%)
same,"Stomatitis, grade 3–4",Total (N=42),0 (0) n (%)
same,"Stomatitis, grade Any",Total (N=42),14 (33) n (%)
same,"Vomiting, grade 3–4",Total (N=42),0 (0) n (%)
same,"Vomiting, grade Any",Total (N=42),15 (36) n (%)
same,"Diarrhea, frequency",all 42 patients,79%
same,"Fatigue, frequency",all 42 patients,40%
same,"Nausea, frequency",all 42 patients,52 % of patients
same,"Stomatitis, frequency",all 42 patients,33%
same,"Vomiting, frequency",all 42 patients,36%
same,"Alopecia, grade 3–4",erlotinib 100–150 mg (N=4),0 (0) n (%)
same,"Alopecia, grade Any",erlotinib 100–150 mg (N=4),0 (0) n (%)
same,"Anorexia, grade 3–4",erlotinib 100–150 mg (N=4),0 (0) n (%)
same,"Anorexia, grade Any",erlotinib 100–150 mg (N=4),2 (50) n (%)
same,"Creatinine, grade 3–4",erlotinib 100–150 mg (N=4),0 (0) n (%)
same,"Creatinine, grade Any",erlotinib 100–150 mg (N=4),0 (0) n (%)
same,"Diarrhea, grade 3–4",erlotinib 100–150 mg (N=4),0 (0) n (%)
same,"Diarrhea, grade Any",erlotinib 100–150 mg (N=4),4 (100) n (%)
same,"Epistaxis, grade 3–4",erlotinib 100–150 mg (N=4),0 (0) n (%)
same,"Epistaxis, grade Any",erlotinib 100–150 mg (N=4),0 (0) n (%)
same,"Fatigue, grade 3–4",erlotinib 100–150 mg (N=4),0 (0) n (%)
same,"Fatigue, grade Any",erlotinib 100–150 mg (N=4),3 (75) n (%)
same,"Headache, grade 3–4",erlotinib 100–150 mg (N=4),0 (0) n (%)
same,"Headache, grade Any",erlotinib 100–150 mg (N=4),0 (0) n (%)
same,"Nausea, grade 3–4",erlotinib 100–150 mg (N=4),0 (0) n (%)
same,"Nausea, grade Any",erlotinib 100–150 mg (N=4),3 (75) n (%)
same,"Paronychia, grade 3–4",erlotinib 100–150 mg (N=4),0 (0) n (%)
same,"Paronychia, grade Any",erlotinib 100–150 mg (N=4),0 (0) n (%)
same,"Skin fissures, grade 3–4",erlotinib 100–150 mg (N=4),0 (0) n (%)
same,"Skin fissures, grade Any",erlotinib 100–150 mg (N=4),1 (25) n (%)
same,"Stomatitis, grade 3–4",erlotinib 100–150 mg (N=4),0 (0) n (%)
same,"Stomatitis, grade Any",erlotinib 100–150 mg (N=4),2 (50) n (%)
same,"Vomiting, grade 3–4",erlotinib 100–150 mg (N=4),0 (0) n (%)
same,"Vomiting, grade Any",erlotinib 100–150 mg (N=4),2 (50) n (%)
same,"Alopecia, grade 3–4",erlotinib 175–200 mg (N=13),0 (0) n (%)
same,"Alopecia, grade Any",erlotinib 175–200 mg (N=13),0 (0) n (%)
same,"Anorexia, grade 3–4",erlotinib 175–200 mg (N=13),0 (0) n (%)
same,"Anorexia, grade Any",erlotinib 175–200 mg (N=13),0 (0) n (%)
same,"Creatinine, grade Any",erlotinib 175–200 mg (N=13),1 (8) n (%)
same,"Diarrhea, grade 3–4",erlotinib 175–200 mg (N=13),0 (0) n (%)
same,"Diarrhea, grade Any",erlotinib 175–200 mg (N=13),9 (69) n (%)
same,"Epistaxis, grade 3–4",erlotinib 175–200 mg (N=13),0 (0) n (%)
same,"Epistaxis, grade Any",erlotinib 175–200 mg (N=13),0 (0) n (%)
same,"Fatigue, grade Any",erlotinib 175–200 mg (N=13),4 (31) n (%)
same,"Headache, grade 3–4",erlotinib 175–200 mg (N=13),0 (0) n (%)
same,"Headache, grade Any",erlotinib 175–200 mg (N=13),0 (0) n (%)
same,"Nausea, grade 3–4",erlotinib 175–200 mg (N=13),0 (0) n (%)
same,"Nausea, grade Any",erlotinib 175–200 mg (N=13),5 (38) n (%)
same,"Paronychia, grade 3–4",erlotinib 175–200 mg (N=13),0 (0) n (%)
same,"Paronychia, grade Any",erlotinib 175–200 mg (N=13),0 (0) n (%)
same,"Skin fissures, grade 3–4",erlotinib 175–200 mg (N=13),0 (0) n (%)
same,"Skin fissures, grade Any",erlotinib 175–200 mg (N=13),0 (0) n (%)
same,"Stomatitis, grade 3–4",erlotinib 175–200 mg (N=13),0 (0) n (%)
same,"Stomatitis, grade Any",erlotinib 175–200 mg (N=13),5 (38) n (%)
same,"Vomiting, grade 3–4",erlotinib 175–200 mg (N=13),0 (0) n (%)
same,"Vomiting, grade Any",erlotinib 175–200 mg (N=13),5 (38) n (%)
same,"Creatinine, grade 3–4","erlotinib 175–200 mg (N=13), non-cutaneous dose limiting toxicity reported",1 (8) ^a n (%)
